Experimental data: US9604964B2, “Dihydropyrazole GPR40 modulators” (BRISTOL-MYERS SQUIBB COMPANY, priority 2012, dated 2017)

These compounds were tested against human GPR40 (Homo sapiens, UniProt O14842) (assay: FDSS-based intracellular calcium assay (Human GPR40 in vitro assay)). Conditions: intracellular Ca2+ response, cells expressing GPR40; read-out: hGPR40 EC50.
Assay type: cell-based
Design: 3xFLAG; expressed in transfected cells
Protocol: FDSS-based Intracellular Calcium Assay
Compounds are dissolved in DMSO and diluted to desired concentrations with assay buffer and added to the cells as 3× solution (20 μL per well). Run fluorescence/luminescence reader FDSS (Hamamatsu) to read intracellular Ca^2+ response.

Chain of human GPR40 (O14842 whole entry): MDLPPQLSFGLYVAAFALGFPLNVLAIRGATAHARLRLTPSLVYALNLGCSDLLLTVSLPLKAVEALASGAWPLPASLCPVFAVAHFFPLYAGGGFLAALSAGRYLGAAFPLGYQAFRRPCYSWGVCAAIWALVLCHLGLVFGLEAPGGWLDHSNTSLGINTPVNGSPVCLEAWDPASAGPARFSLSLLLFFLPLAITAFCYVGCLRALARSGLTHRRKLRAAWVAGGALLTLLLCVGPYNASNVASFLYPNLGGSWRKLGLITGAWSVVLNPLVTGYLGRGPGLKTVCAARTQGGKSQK

SMILES | EC50
CCOc1ccc(F)c(N2CCC(Oc3ccc(N4N=C(C(F)(F)F)[C@@H](C)[C@@H]4CC(=O)O)cc3)C(Cc3ccccc3)C2)c1 (single isomer, unassigned) [Example 28 (Isomer 1)] | 0.132 µM
CCOc1ccc(F)c(N2CCC(Oc3ccc(N4N=C(c5ccc(C#N)c(C#N)c5)[C@@H](C)[C@@H]4CC(=O)O)cc3)CC2)c1 [Example 96, 2-((4S,5S)-3-(3,4-dicyanophenyl)-1-(4-((1-(5-ethoxy-2-fluorophenyl)piperidin-4-yl)oxy)phenyl)-4-methyl-4,5-dihydro-1H-pyrazol-5-yl)acetic acid] | 1.57 µM
COc1cc(N2CC(CCc3ccc(N4N=C(C(F)(F)F)[C@@H](C)[C@@H]4CC(=O)O)cc3)C2)c(Cl)cn1 [Example B36, 2-((4S,5S)-1-(4-(2-(1-(5-chloro-2-methoxypyridin-4-yl)azetidin-3-yl)ethyl)phenyl)-4-methyl-3-(trifluoromethyl)-4,5-dihydro-1H-pyrazol-5-yl)acetic acid] | 0.591 µM
C[C@@H]1C(C(F)(F)F)=NN(c2ccc(OC3CCN(c4nccc(C(F)(F)F)n4)CC3)cc2)[C@H]1CC(=O)O [Example 20, 2-((4S,5S)-4-methyl-3-(trifluoromethyl)-1-(4-((1-(4-(trifluoromethyl)pyrimidin-2-yl)piperidin-4-yl)oxy)phenyl)-4,5-dihydro-1H-pyrazol-5-yl)acetic acid] | 1.42 µM
COc1cc(N2CCC(Oc3ccc(N4N=C(C#N)C(C)C4CC(=O)O)cc3)C(C)C2)c(Cl)cn1 (single isomer, unassigned) [Example B6, Isomer 2, 2-(1-(4-((1-(5-chloro-2-methoxypyridin-4-yl)-3-methylpiperidin-4-yl)oxy)phenyl)-3-cyano-4-methyl-4,5-dihydro-1H-pyrazol-5-yl)acetic acid] | 4.85 µM
COc1cc(N2CCC(Oc3ccc(N4N=C(C(F)(F)F)[C@@H](C)[C@@H]4CC(=O)O)cc3)C3(CC3)C2)c(Cl)cn1 (stereo partly drawn) [Example B37, 2-((4S,5S)-1-(4-((5-(5-chloro-2-methoxypyridin-4-yl)-5-azaspiro[2.5]octan-8-yl)oxy)phenyl)-4-methyl-3-(trifluoromethyl)-4,5-dihydro-1H-pyrazol-5-yl)acetic acid] | 0.774 µM
COc1cc(N2CCC(Oc3ccc(N4N=C(C#N)C(C)C4CC(=O)O)cc3)C(C)C2)c(Cl)cn1 (single isomer, unassigned) [Example B6, Isomer 1, 2-(1-(4-((1-(5-chloro-2-methoxypyridin-4-yl)-3-methylpiperidin-4-yl)oxy)phenyl)-3-cyano-4-methyl-4,5-dihydro-1H-pyrazol-5-yl)acetic acid] | 0.303 µM
COc1ccnc(N2CCC(Oc3ccc(N4N=C(C(F)(F)F)[C@@H](C)[C@@H]4CC(=O)O)cc3)CC2)n1 [Example B28, 2-((4S,5S)-1-(4-((1-(4-methoxypyrimidin-2-yl)piperidin-4-yl)oxy)phenyl)-4-methyl-3-(trifluoromethyl)-4,5-dihydro-1H-pyrazol-5-yl)acetic acid] | 5.27 µM
COc1ccc(F)c(N2C[C@@H]3C[C@H]2CC3Oc2ccc(N3N=C(C(F)(F)F)[C@@H](C)[C@@H]3CC(=O)O)cc2)c1 (stereo partly drawn) [Example 70, 2-((4S,5S)-1-(4-(((1S,4S)-2-(2-fluoro-5-methoxyphenyl)-2-azabicyclo[2.2.1]heptan-5-yl)oxy)phenyl)-4-methyl-3-(trifluoromethyl)-4,5-dihydro-1H-pyrazol-5-yl)acetic acid] | 1 µM
COc1cc(N2CC3CCC(C2)C3Cc2ccc(N3N=C(C(F)(F)F)[C@@H](C)[C@@H]3CC(=O)O)cc2)c(Cl)cn1 (stereo partly drawn) [Example B13, 2-((4S,5S)-1-(4-(((1R,5S,8S)-3-(5-chloro-2-methoxypyridin-4-yl)-3-azabicyclo[3.2.1]octan-8-yl)methyl)phenyl)-4-methyl-3-(trifluoromethyl)-4,5-dihydro-1H-pyrazol-5-yl)acetic acid] | 2.2 µM
COc1ccc(F)c(N2C3CCC2CC(Oc2ccc(N4N=C(C(F)(F)F)[C@@H](C)[C@@H]4CC(=O)O)cc2)C3)c1 (stereo partly drawn) [Example 2, 2-((4S,5S)-1-(4-((8-(2-fluoro-5-methoxyphenyl)-8-azabicyclo[3.2.1]octan-3-yl)oxy)phenyl)-4-methyl-3-(trifluoromethyl)-4,5-dihydro-1H-pyrazol-5-yl)acetic acid] | 0.644 µM
C[C@@H]1C(C(F)(F)F)=NN(c2ccc(OC3CCN(S(=O)(=O)C4CCCCC4)CC3)cc2)[C@H]1CC(=O)O [Example B22, 2-((4S,5S)-1-(4-((1-(cyclohexylsulfonyl)piperidin-4-yl)oxy)phenyl)-4-methyl-3-(trifluoromethyl)-4,5-dihydro-1H-pyrazol-5-yl)acetic acid] | 1.33 µM
Cc1nc(C)c(N2CCC(Oc3ccc(N4N=C(C(F)(F)F)[C@@H](C)[C@@H]4CC(=O)O)cc3)CC2)s1 [Example B16, 2-((4S,5S)-1-(4-((1-(2,4-Dimethylthiazol-5-yl)piperidin-4-yl)oxy)phenyl)-4-methyl-3-(trifluoromethyl)-4,5-dihydro-1H-pyrazol-5-yl)acetic acid] | 1.1 µM
CCOc1ccc(F)c(N2CCC(Cc3ccc(N4N=C(C(F)(F)F)[C@@H](C)[C@@H]4CC(=O)O)cc3)C(C)C2)c1 (single isomer, unassigned) [Example 3 (Isomer 2)] | 0.471 µM
COc1nc(N2CCC(Oc3ccc(N4N=C(C(F)(F)F)[C@@H](C)[C@@H]4CC(=O)O)cc3)CC2)ncc1F [Example B29, 2-((4S,5S)-1-(4-((1-(5-Fluoro-4-methoxypyrimidin-2-yl)piperidin-4-yl)oxy)phenyl)-4-methyl-3-(trifluoromethyl)-4,5-dihydro-1H-pyrazol-5-yl)acetic acid] | 3.68 µM
CCOc1cc(F)c(F)c(N2CCC(Oc3ccc(N4N=C(c5ccc(F)c(F)c5)[C@@H](C)[C@@H]4CC(=O)O)cc3)CC2)c1 [Example 97, 2-((4S,5S)-3-(3,4-difluorophenyl)-1-(4-((1-(5-ethoxy-2,3-difluorophenyl)piperidin-4-yl)oxy)phenyl)-4-methyl-4,5-dihydro-1H-pyrazol-5-yl)acetic acid] | 3.14 µM
C[C@@H]1C(C(F)(F)F)=NN(c2ccc(OCC3CN(C(=O)OC(C)(C)C)C3)cc2)[C@H]1CC(=O)O [Example B30, 2-((4S,5S)-1-(4-((1-(tert-Butoxycarbonyl)azetidin-3-yl)methoxy)phenyl)-4-methyl-3-(trifluoromethyl)-4,5-dihydro-1H-pyrazol-5-yl)acetic acid] | 2.77 µM
COc1cc(N2CCC(Cc3ccc(N4N=C(C(F)(F)F)[C@@H](C)[C@@H]4CC(=O)O)cc3)CC2)c(Cl)cn1 [Example B10, 2-((4S,5S)-1-(4-((1-(5-chloro-2-methoxypyridin-4-yl)piperidin-4-yl)methyl)phenyl)-4-methyl-3-(trifluoromethyl)-4,5-dihydro-1H-pyrazol-5-yl)acetic acid] | 0.517 µM
COCC1CN(c2cc(OC)ncc2Cl)CCC1Oc1ccc(N2N=C(C(F)(F)F)[C@@H](C)[C@@H]2CC(=O)O)cc1 (single isomer, unassigned) [Example B3, Isomer 2] | 0.768 µM
Cc1ccccc1S(=O)(=O)N1CCC(Oc2ccc(N3N=C(C(F)(F)F)[C@@H](C)[C@@H]3CC(=O)O)cc2)CC1 [Example B27, 2-((4S,5S)-4-Methyl-1-(4-((1-(o-tolylsulfonyl)piperidin-4-yl)oxy)phenyl)-3-(trifluoromethyl)-4,5-dihydro-1H-pyrazol-5-yl)acetic acid] | 4.85 µM
COc1cccc(N2CC3CCC(C2)C3Cc2ccc(N3N=C(C(F)(F)F)[C@@H](C)[C@@H]3CC(=O)O)cc2)c1 (stereo partly drawn) [Example B12, 2-((4S,5S)-1-(4-(((1R,5S,8S)-3-(3-methoxyphenyl)-3-azabicyclo[3.2.1]octan-8-yl)methyl)phenyl)-4-methyl-3-(trifluoromethyl)-4,5-dihydro-1H-pyrazol-5-yl)acetic acid] | 5.72 µM
C[C@@H]1C(C(F)(F)F)=NN(c2ccc(CC3C4CCC3CN(C(=O)OCc3ccccc3)C4)cc2)[C@H]1CC(=O)O (stereo partly drawn) [Example B11, 2-((4S,5S)-1-(4-(((1R,5S,8S)-3-((benzyloxy)carbonyl)-3-azabicyclo[3.2.1]octan-8-yl)methyl)phenyl)-4-methyl-3-(trifluoromethyl)-4,5-dihydro-1H-pyrazol-5-yl)acetic acid] | 7.38 µM
C[C@@H]1C(C(F)(F)F)=NN(c2ccc(OC3CCN(c4cc5c(cc4Cl)CCO5)CC3)cc2)[C@H]1CC(=O)O [Example 4, 2-((4S,5S)-1-(4-((1-(5-chloro-2,3-dihydrobenzofuran-6-yl)piperidin-4-yl)oxy)phenyl)-4-methyl-3-(trifluoromethyl)-4,5-dihydro-1H-pyrazol-5-yl)acetic acid] | 1.04 µM
CCOc1ccc(F)c(N2CCC(Oc3ccc(N4N=C(C#N)C(C)C4CC(=O)O)cc3)C(C)C2)c1 (single isomer, unassigned) [Example B7, Isomer 2, 2-(3-Cyano-1-(4-((1-(5-ethoxy-2-fluorophenyl)-3-methylpiperidin-4-yl)oxy)phenyl)-4-methyl-4,5-dihydro-1H-pyrazol-5-yl)acetic acid] | 5.79 µM
COc1ccc(F)c(N2C(=O)[C@H]3C[C@@H]2CC3Oc2ccc(N3N=C(C(F)(F)F)[C@@H](C)[C@@H]3CC(=O)O)cc2)c1 (stereo partly drawn) [Example 67, 2-((4S,5S)-1-(4-(((1R,4S)-2-(2-fluoro-5-methoxyphenyl)-3-oxo-2-azabicyclo[2.2.1]heptan-5-yl)oxy)phenyl)-4-methyl-3-(trifluoromethyl)-4,5-dihydro-1H-pyrazol-5-yl)acetic acid] | 6.41 µM
CCOc1ccc(F)c(N2CCC(Oc3ccc(N4N=C(C(F)(F)F)[C@@H](C)[C@@H]4CC(=O)O)cc3)C(OC)C2)c1 (single isomer, unassigned) [Example 31 (Isomer 2)] | 0.91 µM
COc1cc(N2CCC(Cc3ccc(N4N=C(C(F)(F)F)[C@@H](C)[C@@H]4CC(=O)O)cc3)CC2)ccn1 [Example B9, 2-((4S,5S)-1-(4-((1-(2-methoxypyridin-4-yl)piperidin-4-yl)methyl)phenyl)-4-methyl-3-(trifluoromethyl)-4,5-dihydro-1H-pyrazol-5-yl)acetic acid] | 2.66 µM
